Results as given in paper PMC8171112 (Bioorganic & medicinal chemistry, 2021).

Key:
[1] = tested on: TET1; details: 10 mM, 0.1 mM α-KG; cited from earlier work
[2] = tested on: TET2; details: 10 mM, 0.1 mM α-KG; cited from earlier work
[3] = tested on: TET enzyme (5hmC/5mC) in THP1 cells; type: cell-based; details: prodrug esters, three concentrations, 12 h
[4] = target: catalytic domain of TET2 (TET2CD) (Homo sapiens, UniProt Q6N021); experiment: ELISA of 5hmC for TET2 activity, cell free; type: biochemical; details: for potency relative to NOG: cell free ELISA, more potent than NOG (Figure 1)
[5] = target: TET2CD (Homo sapiens, UniProt Q6N021); experiment: LC-MS/MS analysis to probe TET2CD modification; details: TET2CD 10 μM, 2a 100 μM, 2 h, trypsin and chymotrypsin digestion
[6] = tested on: TET2; details: read-out: IC50 TET2; Figure 3 insert; cited from earlier work
[7] = tested on: 16 other α-KG/Fe(II) dependent enzymes; details: cited from earlier work
[8] = tested on: TET1; details: read-out: IC50 TET1; cited from earlier work
[9] = tested on: wild type (WT)-TET2; details: cited from earlier work

SMILES: O=C(O)CC[C@H](O)C(=O)O [S-2-HG]
- inhibition of TET1 activity [1]: inhibiting most of TET1 and TET2 activity
- inhibition of TET2 activity [2]: inhibiting most of TET1 and TET2 activity

SMILES: C=C(CC(Cl)C(=O)OC)C(=O)OC (centres unmarked) [compound 9, Dimethyl 2-chloro-4-methylenepentanedioate]
- TET inhibition in THP1 cells, dot blot [3]: good activity consistent with 1a

SMILES: O=C(O)CCC(=O)C(=O)O [α-KG, α-ketoglutarate, reference compound]
- EC50 ([4]; read-out: EC50, TET2CD dioxygenase activity response to α-KG, ELISA, Figure 5A): 3.5 µM

SMILES: C=C(CC(O)C(=O)O)C(=O)O (centres unmarked) [2a, 2-Hydroxy-4-methylenepentanedioic acid]
- covalent modification of +160 Da of TET2CD peptides [5]: did not observed covalent modification of +160 Da of any peptide
- IC50 [6]: 9.4 µM
- inhibition of 16 other α-KG/Fe(II) dependent enzymes [7]: does not inhibit
- potency relative to NOG [4]: approximately 2 fold

SMILES: C=C(C[C@H](O)C(=O)O)C(=O)O [16S, (S)-2-Hydroxy-4-methylenepentanedioic acid]
- potency relative to NOG [4]: approximately 2 fold

SMILES: Nc1nc(=O)n(-c2cccc(-c3ccccc3)c2)cc1Cl [Bobcat 339]
- IC50 [8]: 33 µM

SMILES: COC(=O)CCC(=O)C(=O)OC [DMKG, dimethyl-2-ketoglutarate, reference compound]
- TET inhibition in THP1 cells, dot blot [3]: no inhibition

SMILES: COC(=O)C(=O)CC(C)C(=O)OC (centres unmarked) [21a]
- TET inhibition in THP1 cells, dot blot [3]: no inhibition

SMILES: C=C(C[C@@H](O)C(=O)O)C(=O)O [16R, (R)-2-Hydroxy-4-methylenepentanedioic acid]
- potency relative to NOG [4]: approximately 2 fold

SMILES: CC(C)CC(NC(=O)C(=O)O)C(=O)O (centres unmarked) [NOG-5]
- effect on wild type (WT)-TET2 [9]: no effect
